Laboratory results from US7375088B2, “Polyene polyketides, processes for their production and their use as a pharmaceutical” (Thallion Pharmaceuticals Inc., priority 2003, dated 2008).

Experiments:
Aspergillus fumigatus = test: Disk diffusion assay (MEC and zone of inhibition); assay type: cell-based; settings: for ZOI (zone of inhibition of fungal growth calculated for each MEC): at the MEC; for ZOI (zone of inhibition of fungal growth calculated for each MEC) / MEC (minimum effective concentration): 24 hours of incubation; for MEC (minimum effective concentration): disk diffusion
Aspergillus flavus = test: Disk diffusion assay (MEC and zone of inhibition); assay type: cell-based; settings: for ZOI (zone of inhibition of fungal growth calculated for each MEC): at the MEC; for ZOI (zone of inhibition of fungal growth calculated for each MEC) / MEC (minimum effective concentration): 24 hours of incubation; for MEC (minimum effective concentration): disk diffusion

| Compound | ZOI (zone of inhibition of fungal growth calculated for each MEC) (Aspergillus fumigatus) [mm] | MEC (minimum effective concentration) (Aspergillus fumigatus) [µg/mL] | ZOI (zone of inhibition of fungal growth calculated for each MEC) (Aspergillus flavus) [mm] | MEC (minimum effective concentration) (Aspergillus flavus) [µg/mL] | antifungal activity in disk diffusion assay (Aspergillus fumigatus) | antifungal activity in disk diffusion assay (Aspergillus flavus) |
| --- | --- | --- | --- | --- | --- | --- |
| CCC(C)n1ncn(-c2ccc(N3CCN(c4ccc(OCC5COC(Cn6cncn6)(c6ccc(Cl)cc6Cl)O5)cc4)CC3)cc2)c1=O (centres unmarked) [Itraconazole] | 1.7 | 1.0 | 1.7 | 0.5 | – | – |
| OC(Cn1cncn1)(Cn1cncn1)c1ccc(F)cc1F [Fluconazole] | 0 | 0 | 0 | 0 | inactive | inactive |
| CC[C@H](C)C[C@H](C)CCCCCCCCC(=O)N[C@H]1C[C@@H](O)[C@@H](NCCN)NC(=O)[C@@H]2[C@@H](O)CCN2C(=O)[C@H]([C@H](O)CCN)NC(=O)[C@H]([C@H](O)[C@@H](O)c2ccc(O)cc2)NC(=O)[C@@H]2C[C@@H](O)CN2C(=O)[C@H]([C@@H](C)O)NC1=O [Casponfungin] | 0.7 | 2.5 | 0.7 | 2.5 | – | – |
